The values that follow come from US9062078B2, “Substituted 7-azabicyles and their use as orexin receptor modulators” (priority 2013, dated 2015).

Each structure is given as a SMILES string. pKi: −log10 of the molar value. Like-named read-outs stand apart in the source and are kept apart here.

One test deals with human orexin 2 receptor (Homo sapiens (Human), UniProt O43614). The test is described as follows: Human orexin 2 receptor radioligand binding (competitive, [3H]-EMPA, HEK293 cell preparations).
Sequence of human orexin 2 receptor (O43614 whole entry): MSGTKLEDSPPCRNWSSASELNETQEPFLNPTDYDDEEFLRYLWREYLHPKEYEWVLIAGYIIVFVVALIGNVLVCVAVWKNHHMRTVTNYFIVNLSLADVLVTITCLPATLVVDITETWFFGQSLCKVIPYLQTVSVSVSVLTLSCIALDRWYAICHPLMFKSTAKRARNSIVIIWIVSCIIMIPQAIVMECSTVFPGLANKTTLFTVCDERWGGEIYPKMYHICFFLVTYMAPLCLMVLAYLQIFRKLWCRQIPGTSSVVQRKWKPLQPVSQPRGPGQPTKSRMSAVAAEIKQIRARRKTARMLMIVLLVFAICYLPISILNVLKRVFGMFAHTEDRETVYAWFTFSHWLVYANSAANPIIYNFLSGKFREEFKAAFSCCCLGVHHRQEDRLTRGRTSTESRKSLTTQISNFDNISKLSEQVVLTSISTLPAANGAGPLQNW
The target in another test is human orexin 1 receptor (Homo sapiens (Human), UniProt O43613). Nature of the test: Human orexin 1 receptor radioligand binding (competitive, [3H]-SB674042, CHO cell preparations).
Sequence of human orexin 1 receptor (O43613 whole entry): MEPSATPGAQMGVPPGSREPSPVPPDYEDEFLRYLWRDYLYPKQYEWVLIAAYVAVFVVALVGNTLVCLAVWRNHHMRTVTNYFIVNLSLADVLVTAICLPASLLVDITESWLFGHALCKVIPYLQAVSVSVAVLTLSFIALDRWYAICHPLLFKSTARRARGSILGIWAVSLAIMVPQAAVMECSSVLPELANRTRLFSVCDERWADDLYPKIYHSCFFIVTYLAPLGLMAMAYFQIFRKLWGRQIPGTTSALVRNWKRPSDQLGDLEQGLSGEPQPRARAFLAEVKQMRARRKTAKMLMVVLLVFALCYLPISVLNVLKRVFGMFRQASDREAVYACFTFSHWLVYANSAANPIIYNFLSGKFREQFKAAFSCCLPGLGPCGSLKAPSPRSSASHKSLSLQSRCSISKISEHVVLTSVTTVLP
The next test deals with rat orexin 1 receptor (Rattus norvegicus, UniProt P56718). Nature of the test: Rat orexin 1 receptor radioligand binding (competitive, [3H]-SB674042, HEK293 cell preparations).
The mark [1] stands for this setting: human orexin 2 receptor, [3H]-EMPA competition binding, read-out: hOX2 Ki (nm).
Setting [2] is: human orexin 1 receptor, [3H]-SB674042 competition binding, read-out: hOX1 Ki (nm).
Setting [3] is: rat orexin 1 receptor, [3H]-SB674042 competition binding, read-out: rOX1 Ki (nm).

As for `O=C(c1cccc(F)c1-c1ncccn1)N1C2CCC1C(COc1ccc(F)cn1)C2` (racemic) [Example 124, (±)-(3-fluoro-2-(pyrimidin-2-yl)phenyl)(−2-(((5-fluoropyridin-2-yl)oxy)methyl)-7-azabicyclo[2.2.1]heptan-7-yl)methanone], the pKi at human orexin 2 receptor (setting [1]) is 6.45; at human orexin 1 receptor (hOX1 Ki (nm)), 7.28; at rat orexin 1 receptor (rOX1 Ki (nm)), 7.08.
As to `O=C(c1ccccc1-n1nccn1)N1C2CCC1C(Nc1cnc3ccccc3n1)C2` (racemic) [Example 204, (±)-(2-(2H-1,2,3-triazol-2-yl)phenyl)(2-(quinoxalin-2-ylamino)-7-azabicyclo[2.2.1]heptan-7-yl)methanone], the pKi is 6.66 at human orexin 2 receptor (hOX2 Ki (nm)), 7.60 at human orexin 1 receptor (hOX1 Ki (nm)) and 7.48 on rat orexin 1 receptor (rOX1 Ki (nm)).
For the molecule `Cc1ccc(C(=O)N2C3CCC2C(COc2ccc(F)cn2)C3)c(-n2nccn2)c1` (racemic) [Example 121, (±)-(2-(((5-fluoropyridin-2-yl)oxy)methyl)-7-azabicyclo[2.2.1]heptan-7-yl)(4-methyl-2-(2H-1,2,3-triazol-2-yl)phenyl)methanone], the pKi on human orexin 2 receptor (setting [1]) is 6.47; at human orexin 1 receptor (setting [2]), 7.17; at rat orexin 1 receptor (setting [3]), 7.11.
The like results for `Cc1ccc(N2CCCC2)c(C(=O)N2C3CCC2C(COc2ccccn2)C3)n1` (racemic) [Example 97, (±)-(6-methyl-3-(pyrrolidin-1-yl)pyridin-2-yl)(2-((pyridin-2-yloxy)methyl)-7-azabicyclo[2.2.1]heptan-7-yl)methanone] were, in that order, 6.08, 7.49 and 7.46.
The like results for `O=C(c1c(F)cccc1-n1nccn1)N1C2CCC1C(COc1cnc3ccccc3n1)C2` (racemic) [Example 35, (±)-(2-fluoro-6-(2H-1,2,3-triazol-2-yl)phenyl)(2-((quinoxalin-2-yloxy)methyl)-7-azabicyclo[2.2.1]heptan-7-yl)methanone] were, in that order, 6.16, 7.24 and 7.16.
Regarding `COc1ccc(C(=O)N2[C@@H]3CC[C@H]2[C@H](Nc2cnc(C(F)(F)F)cn2)C3)c(-c2ncccn2)c1` [Example 249, (4-methoxy-2-(pyrimidin-2-yl)phenyl)((1S,2R,4R)-2-((5-(trifluoromethyl)pyrazin-2-yl)amino)-7-azabicyclo[2.2.1]heptan-7-yl)methanone], the pKi at human orexin 2 receptor (setting [1]) is 5.25; on human orexin 1 receptor (read-out: hOX1 Ki (nm)), 7.27; at rat orexin 1 receptor (read-out: rOX1 Ki (nm)), 7.24.
Turning to `CCOc1ccc(C)nc1C(=O)N1C2CCC1C(Nc1cnc3ccccc3n1)C2` (single isomer, unassigned) [Example 207, (±)-(3-ethoxy-6-methylpyridin-2-yl)(2-(quinoxalin-2-ylamino)-7-azabicyclo[2.2.1]heptan-7-yl)methanone], the figures for the pKi at human orexin 2 receptor (setting [1]), at human orexin 1 receptor (setting [2]) and at rat orexin 1 receptor (setting [3]) were 7.19, 7.02 and 6.92, respectively.
`COc1ccc(-n2nccn2)c(C(=O)N2C3CCC2C(COc2ccc(F)cn2)C3)c1` (racemic) [Example 114, (±)-(2-(((5-fluoropyridin-2-yl)oxy)methyl)-7-azabicyclo[2.2.1]heptan-7-yl)(5-methoxy-2-(2H-1,2,3-triazol-2-yl)phenyl)methanone]: the figures for the pKi at human orexin 2 receptor (hOX2 Ki (nm)), on human orexin 1 receptor (hOX1 Ki (nm)) and at rat orexin 1 receptor (rOX1 Ki (nm)) were 7.14, 7.32 and 7.70, respectively.
On the same counts, the results for `O=C(c1cccc(F)c1-c1ncccn1)N1[C@@H]2CC[C@H]1[C@H](Nc1ccc(C(F)(F)F)cn1)C2` [Example 279, (3-fluoro-2-(pyrimidin-2-yl)phenyl)((1S,2R,4R)-2-((5-(trifluoromethyl)pyridin-2-yl)amino)-7-azabicyclo[2.2.1]heptan-7-yl)methanone] are 5.96, 8.10 and 7.82.
As for `Cc1ccc(C(=O)N2C3CCC2C(COc2cnc4ccccc4n2)C3)c(-n2nccn2)n1` (racemic) [Example 168, (±)-(6-methyl-2-(2H-1,2,3-triazol-2-yl)pyridin-3-yl)(2-((quinoxalin-2-yloxy)methyl)-7-azabicyclo[2.2.1]heptan-7-yl)methanone], the figures for the pKi at human orexin 2 receptor (hOX2 Ki (nm)) and on human orexin 1 receptor (setting [2]) were 5.14 and 5.64, respectively.
Regarding `Cc1ccc(OCC2CC3CCC2N3C(=O)c2ccc(C)nc2-n2nccn2)nc1` (racemic) [Example 135, (±)-(6-methyl-2-(2H-1,2,3-triazol-2-yl)pyridin-3-yl)(2-(((5-methylpyridin-2-yl)oxy)methyl)-7-azabicyclo[2.2.1]heptan-7-yl)methanone], the figures for the pKi on human orexin 2 receptor (setting [1]) and at human orexin 1 receptor (hOX1 Ki (nm)) were 5.41 and 5.27, respectively.
As to `Cc1cc(C)nc(OCC2CC3CCC2N3C(=O)c2ccccc2-c2cccs2)n1` (racemic) [Example 46, (±)-(2-(((4,6-dimethylpyrimidin-2-yl)oxy)methyl)-7-azabicyclo[2.2.1]heptan-7-yl)(2-(thiophen-2-yl)phenyl)methanone], the pKi at human orexin 2 receptor (setting [1]) is 8.00; on human orexin 1 receptor (setting [2]) it was 7.09.
On the same counts, the results for `Cc1cccc(OCC2CC3CCC2N3C(=O)c2ccc(C)nc2-n2ccnn2)n1` (racemic) [Example 140, (±)-(6-methyl-2-(1H-1,2,3-triazol-1-yl)pyridin-3-yl)(2-(((6-methylpyridin-2-yl)oxy)methyl)-7-azabicyclo[2.2.1]heptan-7-yl)methanone] are 5.64 and 5.51.
In the case of `Cc1cc(C)nc(NC2CC3CCC2N3C(=O)c2cc(F)ccc2-n2nccn2)n1` (racemic) [Example 197, (±)-(2-((4,6-dimethylpyrimidin-2-yl)amino)-7-azabicyclo[2.2.1]heptan-7-yl)(5-fluoro-2-(2H-1,2,3-triazol-2-yl)phenyl)methanone], the negative logarithm of the Ki (pKi) at human orexin 2 receptor (hOX2 Ki (nm)) is 6.06; at human orexin 1 receptor (hOX1 Ki (nm)) it was 5.05.
On to `CCOc1ccc2ccccc2c1C(=O)N1C2CCC1C(COc1nc(C)cc(C)n1)C2` (racemic) [Example 41, (±)-(2-(((4,6-dimethylpyrimidin-2-yl)oxy)methyl)-7-azabicyclo[2.2.1]heptan-7-yl)(2-ethoxynaphthalen-1-yl)methanone], for which the pKi is 7.66 at human orexin 2 receptor (setting [1]) and 7.46 on human orexin 1 receptor (setting [2]).
Turning to `Cc1ccc(OCC2CC3CCC2N3C(=O)c2cc(C)ccc2-n2nccn2)nc1` (racemic) [Example 167, (±)-5-methyl-2-(2H-1,2,3-triazol-2-yl)phenyl)(2-(((5-methylpyridin-2-yl)oxy)methyl)-7-azabicyclo[2.2.1]heptan-7-yl)methanone], the pKi on human orexin 2 receptor (hOX2 Ki (nm)) is 7.85; at human orexin 1 receptor (setting [2]) it was 8.05.
Turning to `Cc1noc(-c2ccccc2C(=O)N2C3CCC2C(COc2ccccn2)C3)n1` (racemic) [Example 127, (±)-(2-(3-methyl-1,2,4-oxadiazol-5-yl)phenyl)(2-((pyridin-2-yloxy)methyl)-7-azabicyclo[2.2.1]heptan-7-yl)methanone], the pKi is 5.96 on human orexin 2 receptor (setting [1]) and 6.72 at human orexin 1 receptor (setting [2]).
As for `O=C(c1cc(F)ccc1-c1ncccn1)N1C2CCC1C(COc1ccc(F)cn1)C2` (racemic) [Example 32, (±)-(5-fluoro-2-(pyrimidin-2-yl)phenyl)(2-(((5-fluoropyridin-2-yl)oxy)methyl)-7-azabicyclo[2.2.1]heptan-7-yl)methanone], the pKi was 6.91 at human orexin 2 receptor (setting [1]) and 7.68 on human orexin 1 receptor (hOX1 Ki (nm)).
Consider `CCOc1ncc2ccccc2c1C(=O)N1[C@@H]2CC[C@H]1[C@H](COc1ccccn1)C2` [Example 164, (3-ethoxyisoquinolin-4-yl)((1S,2R,4R)-2-((pyridin-2-yloxy)methyl)-7-azabicyclo[2.2.1]heptan-7-yl)methanone], for which the pKi at human orexin 1 receptor (read-out: hOX1 Ki (nm)) is 8.15; on rat orexin 1 receptor (read-out: rOX1 Ki (nm)), 8.05.
With `Cc1ccc(-n2nccn2)c(C(=O)N2C3CCC2C(COc2nc(C)cnc2C)C3)c1` (racemic) [Example 20, (±)-(2-(((3,6-dimethylpyrazin-2-yl)oxy)methyl)-7-azabicyclo[2.2.1]heptan-7-yl)(5-methyl-2-(2H-1,2,3-triazol-2-yl)phenyl)methanone], the pKi is 6.44 at human orexin 2 receptor (setting [1]) and 6.57 on human orexin 1 receptor (setting [2]).
As for `CCOc1ncc2ccccc2c1C(=O)N1C2CCC1C(COc1ccccn1)C2` (racemic) [Example 83, (±)-(3-ethoxyisoquinolin-4-yl)(2-((pyridin-2-yloxy)methyl)-7-azabicyclo[2.2.1]heptan-7-yl)methanone], the results for the pKi on human orexin 1 receptor (hOX1 Ki (nm)) and on rat orexin 1 receptor (rOX1 Ki (nm)) were 7.92 and 7.77, respectively.
For `O=C(c1ccccc1-c1cccs1)N1C2CCC1C(COc1ccc(F)cn1)C2` (racemic) [Example 11, (±)-(2-(((5-fluoropyridin-2-yl)oxy)methyl)-7-azabicyclo[2.2.1]heptan-7-yl)(2-(thiophen-2-yl)phenyl)methanone], the pKi at human orexin 2 receptor (hOX2 Ki (nm)) was 7.92; on human orexin 1 receptor (hOX1 Ki (nm)) it was 8.00.
Turning to `Cc1cc(C)nc(OCC2CC3CCC2N3C(=O)c2ccc(C)nc2-n2ccnn2)n1` (racemic) [Example 152, (±)-(2-(((4,6-dimethylpyrimidin-2-yl)oxy)methyl)-7-azabicyclo[2.2.1]heptan-7-yl)(6-methyl-2-(1H-1,2,3-triazol-1-yl)pyridin-3-yl)methanone], the pKi is 5.23 on human orexin 2 receptor (setting [1]) and ≤ 5.00 at human orexin 1 receptor (setting [2]).
The like results for `O=C(c1cc(F)ccc1-n1nccn1)N1C2CCC1C(COc1cnc3ccccc3n1)C2` (racemic) [Example 37, (±)-(5-fluoro-2-(2H-1,2,3-triazol-2-yl)phenyl)(2-((quinoxalin-2-yloxy)methyl)-7-azabicyclo[2.2.1]heptan-7-yl)methanone] were, in that order, 6.31 and 6.52.
Turning to `O=C(c1ccccc1-n1nccn1)N1[C@@H]2CC[C@H]1[C@H](Nc1cnc(C(F)(F)F)cn1)C2` [Example 181, (2-(2H-1,2,3-triazol-2-yl)phenyl)((1S,2R,4R)-2-((5-(trifluoromethyl)pyrazin-2-yl)amino)-7-azabicyclo[2.2.1]heptan-7-yl)methanone], the pKi at human orexin 2 receptor (hOX2 Ki (nm)) was 6.15; at human orexin 1 receptor (hOX1 Ki (nm)) it was 7.55.

A word on the pKi: it is the Ki on a negative log10 scale, so that one unit is a factor of ten.
